Source: BindingDB's records for doi:10.1016/j.ejmech.2012.01.025 (National Institute On Drug Abuse and The National Institute …, 2012)

Each molecule was assayed against Delta-type opioid receptor (Homo sapiens, UniProt P41143) (assay: Displacement of [3H]-DADLE from human delta opioid receptor expressed in CHO cells membrane after 2 hrs by liquid scintillation counting).
Sequence of Delta-type opioid receptor (P41143 whole entry): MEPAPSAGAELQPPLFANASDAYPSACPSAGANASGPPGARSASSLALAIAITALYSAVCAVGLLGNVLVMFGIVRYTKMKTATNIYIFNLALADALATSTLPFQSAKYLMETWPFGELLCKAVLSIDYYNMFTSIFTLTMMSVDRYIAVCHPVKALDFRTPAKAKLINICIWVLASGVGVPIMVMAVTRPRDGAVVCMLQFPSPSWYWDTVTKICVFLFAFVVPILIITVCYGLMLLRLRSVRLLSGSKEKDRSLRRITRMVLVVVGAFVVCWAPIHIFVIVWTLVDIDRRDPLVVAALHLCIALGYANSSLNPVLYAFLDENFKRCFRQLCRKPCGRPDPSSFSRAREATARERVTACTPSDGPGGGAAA

SMILES	Ki
CN1C[C@H](O)[C@]2(c3cccc(O)c3)CCC[C@H]1C2	7.2 µM
CN1C2CCC[C@@](c3cccc(O)c3)(C2)[C@@H]1CO	> 10 µM
Oc1cccc([C@@]23CCC[C@@H](C2)N(CCc2ccccc2)C[C@H]3O)c1	1 µM
CN1C[C@@H](O)[C@]2(c3cccc(O)c3)CCC[C@H]1C2	> 15 µM
CN1CC2(OCCO2)[C@]2(c3cccc(O)c3)CCC[C@H]1C2	> 7.8 µM
Oc1cccc([C@@]23CCC[C@@H](C2)N(CCc2ccccc2)C[C@@H]3O)c1	5.8 µM
